{"source": "paper PMC10202359", "about": "“Nicotinamide N-methyltransferase (NNMT) regulates the glucocorticoid signaling pathway during the early phase of adipogenesis” (Scientific Reports, 2023)", "key": {"C3H10T1/2 cells": {"tested_on": "C3H10T1/2 cells", "experiment": "Oil Red-O staining of adipocyte differentiation, C3H10T1/2", "assay_type": "cell-based, mouse", "settings": "25 µM, first 48 h of DIM induction or throughout the period of differentiation", "description": "3T3-L1 Mouse Embryonic Fibroblasts were purchased from American Type Culture Collection (ATCC CL-173). The cells were propagated and maintained in Dulbecco’s modified Eagle’s medium (DMEM, Gibco) supplemented with 10% calf serum (FCS) at 37 °C in 5% CO2 atmosphere. Subconfluents cells were expanded and utilized for the subsequent experiments at the passages 3–6. To induce differentiation, 2-day post-confluent 3T3-L1 pre-adipocytes were cultured for 48 h with DIM (DMEM supplemented with 10% fetal bovine serum (FBS), 1.0 µM Dexamethasone (G. Biosciences), 1.5 mg/mL Insulin (Sigma) and 0.5 mM IBMX (Sigma). Two days after induction the DIM medium was removed and the cells were maintained in DMED supplemented with 10% FBS and […] Insulin, which was replaced every 48 h, until the cells became fully differentiated (8–10 days after induction). C3H10T1/2 cells were purchased from American Type Culture Collection (ATCC, clone 8, CCL-226, were grown and induced to differentiate following the same protocol, with cell cultures < 3 passages. Oil Red-O staining was used as previously described. Briefly, cells were fixed for 30 min with 4% formaldehyde, stained with filtered Oil Red solution (0.2% oil red in 40% 2-propanol) and washed 5 times with distilled water. […] The dye was eluted with 100% 2-propanol and quantified spectroscopically at 510 nm (Synergy HT, Bio-Tek)."}, "DNMT3a": {"target": "T1, DNMT3a (Homo sapiens, UniProt Q9Y6K1)", "T1 construct": "purchased Reaction Biology Corporation", "T1 sequence (Q9Y6K1 whole entry, looked up, species assumed)": "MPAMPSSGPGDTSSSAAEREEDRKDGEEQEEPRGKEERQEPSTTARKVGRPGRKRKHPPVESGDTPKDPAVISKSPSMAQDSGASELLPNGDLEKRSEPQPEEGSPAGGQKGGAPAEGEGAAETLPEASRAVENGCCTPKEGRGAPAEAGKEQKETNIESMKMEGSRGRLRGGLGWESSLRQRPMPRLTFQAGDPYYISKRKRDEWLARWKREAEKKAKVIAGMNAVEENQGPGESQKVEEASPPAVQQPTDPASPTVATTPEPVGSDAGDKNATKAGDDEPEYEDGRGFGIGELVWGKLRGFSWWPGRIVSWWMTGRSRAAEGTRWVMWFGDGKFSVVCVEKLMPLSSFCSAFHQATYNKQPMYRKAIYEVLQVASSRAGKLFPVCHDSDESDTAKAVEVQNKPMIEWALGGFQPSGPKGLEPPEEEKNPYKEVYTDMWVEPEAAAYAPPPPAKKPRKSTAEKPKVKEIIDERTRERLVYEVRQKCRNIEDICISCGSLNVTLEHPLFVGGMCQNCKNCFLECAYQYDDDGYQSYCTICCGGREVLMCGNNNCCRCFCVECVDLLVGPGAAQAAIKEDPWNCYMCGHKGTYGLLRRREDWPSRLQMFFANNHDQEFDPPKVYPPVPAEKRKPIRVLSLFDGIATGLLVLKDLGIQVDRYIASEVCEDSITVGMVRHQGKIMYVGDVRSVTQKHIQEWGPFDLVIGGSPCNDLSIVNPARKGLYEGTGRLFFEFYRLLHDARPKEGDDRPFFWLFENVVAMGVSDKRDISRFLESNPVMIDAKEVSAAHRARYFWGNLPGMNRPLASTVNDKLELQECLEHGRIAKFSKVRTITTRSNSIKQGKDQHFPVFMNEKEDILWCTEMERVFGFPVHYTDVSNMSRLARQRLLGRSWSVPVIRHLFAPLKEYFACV", "experiment": "Methyltransferase Hot Spot radioisotope assay, DNMT3a", "assay_type": "biochemical", "settings": "10-dose, threefold dilution; CC-410 from 300 μM, control from 100 μM; substrate Lambda DNA", "description": "(§1) CC-410 was screened in biochemical assays for activity against a panel of 11 methyltransferases (MT) by using the radioisotope (3H-AdoMet) based MT Hot Spot Assay. All the assays were performed by Reaction Biology Corporation (RBC, Malven, PA, USA). Briefly CC-410 was incubated with the selected MTs, corresponding substrates, and radiolabeled SAM (S-Adenosyl-L-[methyl-3 H]methionine). The specific MTs assessed, and the corresponding substrates are as follows: DNMT1- Poly dl-dC, DNMT3a- Lambda DNA, DNMT3b- Lambda DNA, DOT1L- Nucleosomes, EZH2 Complex- Core Histone, METTL21A- HSPA8-[CTD], NRMT1- RCC1, PRMT3- Histone H4, PRMT5/MEP50- Histone H2A, SET1b -Core Histone Complex and SMYD2- Nucleosomes. Reaction mixtures were incubated and spotted onto filter papers, which were then washed to remove unreacted SAM, leaving the bound radiolabeled product. Detection of the radiolabeled, methylated product was performed via a nanoliter-scale radioisotope filter binding platform. […] For each assay, control compounds were included as positive controls for enzyme function and assay reproducibility. […] IC50 was calculated by non-linear least square fitting dose–response curve."}, "SMYD2": {"target": "T2, SMYD2 (Homo sapiens, UniProt Q9NRG4)", "T2 construct": "purchased Reaction Biology Corporation", "T2 sequence (Q9NRG4 whole entry, species assumed)": "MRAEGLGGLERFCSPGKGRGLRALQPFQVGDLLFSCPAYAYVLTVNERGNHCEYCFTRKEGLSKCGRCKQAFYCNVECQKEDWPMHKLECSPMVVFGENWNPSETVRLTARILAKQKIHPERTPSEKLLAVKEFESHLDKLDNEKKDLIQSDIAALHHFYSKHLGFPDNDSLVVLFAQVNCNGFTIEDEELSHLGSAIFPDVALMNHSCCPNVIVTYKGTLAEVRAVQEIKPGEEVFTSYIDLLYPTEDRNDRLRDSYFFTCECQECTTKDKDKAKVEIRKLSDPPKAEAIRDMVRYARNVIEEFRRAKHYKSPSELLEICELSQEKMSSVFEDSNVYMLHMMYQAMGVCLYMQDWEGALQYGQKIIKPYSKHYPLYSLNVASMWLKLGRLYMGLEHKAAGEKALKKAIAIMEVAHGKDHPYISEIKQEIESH", "experiment": "Methyltransferase Hot Spot radioisotope assay, SMYD2", "assay_type": "biochemical", "description": "as §1"}, "DOT1L": {"target": "T3, DOT1L (Homo sapiens, UniProt Q8TEK3)", "T3 construct": "purchased Reaction Biology Corporation", "T3 sequence (Q8TEK3 whole entry, species assumed)": "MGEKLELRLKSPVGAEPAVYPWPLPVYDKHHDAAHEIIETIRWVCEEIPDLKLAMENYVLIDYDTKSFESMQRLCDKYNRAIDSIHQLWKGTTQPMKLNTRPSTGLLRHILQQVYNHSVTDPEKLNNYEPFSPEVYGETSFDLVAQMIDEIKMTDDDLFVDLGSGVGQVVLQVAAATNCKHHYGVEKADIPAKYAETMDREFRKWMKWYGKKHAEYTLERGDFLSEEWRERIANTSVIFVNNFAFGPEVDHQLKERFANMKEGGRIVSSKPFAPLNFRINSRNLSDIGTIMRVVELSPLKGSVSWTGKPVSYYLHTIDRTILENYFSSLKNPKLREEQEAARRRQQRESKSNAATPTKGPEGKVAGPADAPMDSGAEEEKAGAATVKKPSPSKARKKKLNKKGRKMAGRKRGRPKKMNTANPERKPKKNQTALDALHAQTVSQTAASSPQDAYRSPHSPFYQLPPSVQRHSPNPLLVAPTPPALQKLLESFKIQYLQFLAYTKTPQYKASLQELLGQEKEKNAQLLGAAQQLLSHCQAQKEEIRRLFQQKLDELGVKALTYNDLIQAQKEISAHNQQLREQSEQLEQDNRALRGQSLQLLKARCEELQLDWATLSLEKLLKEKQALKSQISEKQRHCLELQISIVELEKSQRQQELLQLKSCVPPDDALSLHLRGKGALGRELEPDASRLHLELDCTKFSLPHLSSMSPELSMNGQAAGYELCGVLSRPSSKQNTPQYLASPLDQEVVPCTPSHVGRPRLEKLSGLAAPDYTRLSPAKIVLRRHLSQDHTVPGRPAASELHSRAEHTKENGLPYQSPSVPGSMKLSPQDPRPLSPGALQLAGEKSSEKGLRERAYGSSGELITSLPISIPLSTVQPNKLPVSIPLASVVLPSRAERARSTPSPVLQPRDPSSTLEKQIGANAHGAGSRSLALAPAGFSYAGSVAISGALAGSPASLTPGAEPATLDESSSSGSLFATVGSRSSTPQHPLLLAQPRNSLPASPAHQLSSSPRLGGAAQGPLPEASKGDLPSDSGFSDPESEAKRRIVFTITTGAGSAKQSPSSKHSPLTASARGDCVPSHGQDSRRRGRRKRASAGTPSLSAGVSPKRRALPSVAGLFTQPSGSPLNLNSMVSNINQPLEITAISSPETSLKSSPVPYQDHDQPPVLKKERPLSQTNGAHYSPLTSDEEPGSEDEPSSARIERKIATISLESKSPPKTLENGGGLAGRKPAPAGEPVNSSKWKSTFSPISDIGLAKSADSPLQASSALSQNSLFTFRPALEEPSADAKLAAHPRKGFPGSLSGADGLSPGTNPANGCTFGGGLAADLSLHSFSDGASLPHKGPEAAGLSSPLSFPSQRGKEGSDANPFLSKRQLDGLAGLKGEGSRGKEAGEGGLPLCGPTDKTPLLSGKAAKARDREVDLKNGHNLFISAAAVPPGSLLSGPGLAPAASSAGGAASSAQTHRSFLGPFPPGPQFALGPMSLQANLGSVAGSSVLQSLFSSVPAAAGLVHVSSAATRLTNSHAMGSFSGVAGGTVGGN", "experiment": "Methyltransferase Hot Spot radioisotope assay, DOT1L", "assay_type": "biochemical", "settings": "10-dose, threefold dilution; CC-410 from 300 μM, control from 100 μM; substrate Nucleosomes", "description": "as §1"}, "DNMT3b": {"target": "T4, DNMT3b (Homo sapiens, UniProt Q9UBC3)", "T4 construct": "purchased Reaction Biology Corporation", "experiment": "Methyltransferase Hot Spot radioisotope assay, DNMT3b", "assay_type": "biochemical", "settings": "10-dose, threefold dilution; CC-410 from 300 μM, control from 100 μM; substrate Lambda DNA", "description": "as §1"}, "PRMT3": {"target": "PRMT3 (Homo sapiens, UniProt O60678)", "sequence (O60678 whole entry, species assumed)": "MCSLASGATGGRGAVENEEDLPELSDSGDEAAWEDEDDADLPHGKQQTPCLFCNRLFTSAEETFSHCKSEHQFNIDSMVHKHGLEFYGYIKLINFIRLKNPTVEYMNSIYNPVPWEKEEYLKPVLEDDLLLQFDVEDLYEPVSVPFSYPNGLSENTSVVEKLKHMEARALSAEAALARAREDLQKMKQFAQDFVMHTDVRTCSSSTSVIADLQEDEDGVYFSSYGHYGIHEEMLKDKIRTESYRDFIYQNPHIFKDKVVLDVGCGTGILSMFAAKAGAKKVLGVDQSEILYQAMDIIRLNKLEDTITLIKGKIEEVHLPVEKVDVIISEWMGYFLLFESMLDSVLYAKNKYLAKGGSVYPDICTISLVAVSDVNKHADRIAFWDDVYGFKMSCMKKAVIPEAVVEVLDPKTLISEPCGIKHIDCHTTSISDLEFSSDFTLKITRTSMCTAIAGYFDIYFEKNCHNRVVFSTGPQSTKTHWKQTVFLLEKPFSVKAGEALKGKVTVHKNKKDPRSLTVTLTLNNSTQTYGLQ", "experiment": "Methyltransferase Hot Spot radioisotope assay, PRMT3", "assay_type": "biochemical", "settings": "text and Fig. 4D curve fit; read-out: IC50 for PRMT3", "description": "as §1, with “The specific MTs assessed, and the corresponding substrates are as follows: DNMT1- Poly dl-dC, DNMT3a- Lambda DNA, DNMT3b- Lambda DNA, DOT1L- Nucleosomes, EZH2 Complex- Core Histone, METTL21A- HSPA8-[CTD], NRMT1- RCC1, PRMT3- Histone H4, PRMT5/MEP50- Histone H2A, SET1b -Core Histone Complex and SMYD2- Nucleosomes.” left out"}, "3T3-L1 cells": {"tested_on": "3T3-L1 cells", "experiment": "Oil Red-O staining of adipocyte differentiation, 3T3-L1", "assay_type": "cell-based, mouse", "settings": "for reduction of adipogenesis (Oil Red-O quantification) compared to untreated control: treatment throughout the differentiation process (during adipogenesis)", "description": "3T3-L1 Mouse Embryonic Fibroblasts were purchased from American Type Culture Collection (ATCC CL-173). The cells were propagated and maintained in Dulbecco’s modified Eagle’s medium (DMEM, Gibco) supplemented with 10% calf serum (FCS) at 37 °C in 5% CO2 atmosphere. Subconfluents cells were expanded and utilized for the subsequent experiments at the passages 3–6. To induce differentiation, 2-day post-confluent 3T3-L1 pre-adipocytes were cultured for 48 h with DIM (DMEM supplemented with 10% fetal bovine serum (FBS), 1.0 µM Dexamethasone (G. Biosciences), […] Insulin (Sigma) and 0.5 mM IBMX (Sigma). Two days after induction the DIM medium was removed and the cells were maintained in DMED supplemented with 10% FBS and […] Insulin, which was replaced every 48 h, until the cells became fully differentiated (8–10 days after induction). C3H10T1/2 cells were purchased from American Type Culture Collection (ATCC, clone 8, CCL-226, were grown and induced to differentiate following the same protocol, with cell cultures < 3 passages. Oil Red-O staining was used as previously described. Briefly, cells were fixed for 30 min with 4% formaldehyde, stained with filtered Oil Red solution (0.2% oil red in 40% 2-propanol) and washed 5 times with distilled water. The accumulation of fat droplets in the cells was visualized and photographed under an inverted microscope (DMi1, Leica). The dye was eluted with 100% 2-propanol and quantified spectroscopically at 510 nm (Synergy HT, Bio-Tek)."}, "METTL21A": {"target": "METTL21A (Homo sapiens, UniProt Q8WXB1)", "sequence (Q8WXB1 whole entry, species assumed)": "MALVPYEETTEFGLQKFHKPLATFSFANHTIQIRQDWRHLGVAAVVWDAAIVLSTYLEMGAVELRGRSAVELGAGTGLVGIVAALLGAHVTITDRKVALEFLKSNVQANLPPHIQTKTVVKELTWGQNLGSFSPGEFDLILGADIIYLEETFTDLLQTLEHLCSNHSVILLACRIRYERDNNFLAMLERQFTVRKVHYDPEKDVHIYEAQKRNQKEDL", "experiment": "Methyltransferase Hot Spot radioisotope assay, METTL21A", "assay_type": "biochemical", "settings": "10-dose, threefold dilution; CC-410 from 300 μM, control from 100 μM; substrate HSPA8-[CTD]", "description": "as §1, with “The specific MTs assessed, and the corresponding substrates are as follows: DNMT1- Poly dl-dC, DNMT3a- Lambda DNA, DNMT3b- Lambda DNA, DOT1L- Nucleosomes, EZH2 Complex- Core Histone, METTL21A- HSPA8-[CTD], NRMT1- RCC1, PRMT3- Histone H4, PRMT5/MEP50- Histone H2A, SET1b -Core Histone Complex and SMYD2- Nucleosomes.” left out"}}, "note": "pIC50: −log10 of the molar value."}
{"smiles": "COC(=O)CCC(C)C1CCC2C3C(N)CC4CC(OC(C)=O)CCC4(C)[C@H]3CC(N)C12C", "note": "(stereo in doubt) [CC-410, Methyl-(4S)-4-((3S,5S,7S,8S,10R,12R,13S,14R,17S)-3-acetoxy-7,12-diamino-10,13-dimethylhexadecahydro-1H-cyclopenta[a]phenanthren-17-yl) pentanoate]", "values": [{"measurement": "effect on adipogenesis", "setting": "C3H10T1/2 cells", "result": "effectively inhibit adipogenesis"}, {"measurement": "IC50* (M) DNMT3a", "setting": "DNMT3a", "result": "no inhibition or compound activity that could not be fitted to an IC50 curve"}, {"measurement": "IC50", "setting": "SMYD2", "result": 34.3, "unit": "µM"}, {"measurement": "IC50* (M) DOT1L", "setting": "DOT1L", "result": "no inhibition or compound activity that could not be fitted to an IC50 curve"}, {"measurement": "IC50* (M) DNMT3b", "setting": "DNMT3b", "result": "no inhibition or compound activity that could not be fitted to an IC50 curve"}, {"measurement": "pIC50", "setting": "PRMT3", "result": 3.98}, {"measurement": "reduction of adipogenesis (Oil Red-O quantification) compared to untreated control", "setting": "3T3-L1 cells; 15 µM", "result": 60, "unit": "%"}, {"measurement": "reduction of adipogenesis (Oil Red-O quantification) compared to untreated control", "setting": "3T3-L1 cells; 25 µM", "result": 80, "unit": "%"}, {"measurement": "inhibition of adipogenesis", "setting": "3T3-L1 cells; administered in the first 20 h after hormonal induction, highest concentration tested", "result": 50, "unit": "%"}, {"measurement": "effect on adipogenesis", "setting": "3T3-L1 cells; continuously dispensed after the early phase of adipogenesis", "result": "no anti-adipogenic effect was evident"}, {"measurement": "effect on adipogenesis", "setting": "3T3-L1 cells; treatment during the 48 h of DEX stimulation, followed by IBMX 48 h", "result": "strongly impaired adipogenesis"}, {"measurement": "effect on adipogenesis", "setting": "3T3-L1 cells; treatment during the early phase (from T0 to 48 h)", "result": "markedly reduced adipogenesis, with levels analogous to continuous treatment"}, {"measurement": "IC50* (M) METTL21A", "setting": "METTL21A", "result": "no inhibition or compound activity that could not be fitted to an IC50 curve"}]}
